Source: US20220348564A1, “PHENYL-[1,3]DIOXOLO[4,5-C]PYRIDINYL-PHENYL-, PHENYL-[1,3]DIOXOLO[4,5-C]PYRIDINYL-HETEROARYL-, OR PHENYL-(1,3)DIOXO[4,5-C]PYRIDINYL-PIPERIDINYL-METHYL-OXETANYLMETHYL-1H-BENZO[D]IMIDAZOLE-CARBOXYLIC ACID DERIVATIVES AND METHODS OF USING SAME” (Eccogene (Shanghai) Co., Ltd., priority 2021, published 2022)
pEC50: −log10 of the molar value.

biological target: T1, human GLP-1 (Homo sapiens, UniProt P43220); experiment: h-GLP-1 activity assay (Cisbio cAMP Gs dynamic kit, HTRF); format: cell-based; details: HEK293 cells with stable expression of human GLP-1, relative EC50, 10 nM human GLP-1 = 100% response
T1 construct: expressed in transfected cells
Protocol: Human GLP-1 agonizing activity was detected in HEK293 cells with stable expression of human GLP-1 by Cisbio cAMP Gs dynamic kit (Catalog #62AM4PEC) according to manufacturer's protocol. Briefly, cells were collected and resuspended in assay buffer containing 0.1% BSA and 0.5 mM of IBMX at concentration to 2.5×10^5 cells/mL. Two μL 5× compound solution and 8 μL cell suspension were added to each well of low-volume 384 white assay plate. After 30 min incubation at 37° C., 5 μL cAMP-d2 working solution and 5 μL anti-cAMP antibody-cryptate were added to each well, and incubate at room temperature for 1 hr. Series dilution of cAMP was used as standard. Human GLP-1 (7-37) was used as positive control and 10 nM human GLP-1 was set as 100% response. HTRF signals were read at 665 and 615 nm with EnVision plate reader and calculated cAMP concentration by intrapolation to the standard curve. The EC50 value of the tested compounds was calculated by fitting the dose response curve using a 4-parameter non-linear regression routine and relative EC50 was presented in Table S.

T1 sequence (P43220 24-463): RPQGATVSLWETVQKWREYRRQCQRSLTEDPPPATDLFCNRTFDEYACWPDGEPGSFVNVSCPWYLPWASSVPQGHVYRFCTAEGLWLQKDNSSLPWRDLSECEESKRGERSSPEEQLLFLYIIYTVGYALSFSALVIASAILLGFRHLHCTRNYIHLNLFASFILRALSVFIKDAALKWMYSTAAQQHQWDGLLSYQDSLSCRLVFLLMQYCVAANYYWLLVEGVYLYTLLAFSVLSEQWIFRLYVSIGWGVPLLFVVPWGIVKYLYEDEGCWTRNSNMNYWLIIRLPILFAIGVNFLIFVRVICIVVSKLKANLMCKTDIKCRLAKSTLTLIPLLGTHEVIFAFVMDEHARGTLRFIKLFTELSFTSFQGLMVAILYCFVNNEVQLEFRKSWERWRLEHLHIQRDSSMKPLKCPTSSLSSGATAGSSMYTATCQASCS

Q: How did the pEC50 turn out when `CN1C(=O)C(c2ccc(Cl)cc2F)Oc2c(C3CCN(Cc4nc5ccc(C(=O)O)cc5n4C[C@@H]4CCO4)CC3)cccc21` (mixture of isomers) [Compound 105, 2-((4-(2-(4-chloro-2-fluorophenyl)-4-methyl-3-oxo-3,4-dihydro-2H-benzo[b][1,4]oxazin-8-yl)piperidin-1-yl)methyl)-1-(((S)-oxetan-2-yl)methyl)-1H-benzo[d]imidazole-6-carboxylic acid] was run?
A: < 7.00

Q: `CC1(c2c(F)cc(Cl)cc2F)Oc2cccc(C3=CCC(Cc4nc5ccc(C(=O)O)cc5n4C[C@@H]4CCO4)OC3)c2O1` (mixture of isomers) [Compound 109, 2-((5-(2-(4-chloro-2,6-difluorophenyl)-2-methylbenzo[d][1,3]dioxol-4-yl)-3,6-dihydro-2H-pyran-2-yl)methyl)-1-(((S)-oxetan-2-yl)methyl)-1H-benzo[d]imidazole-6-carboxylic acid] was tested. Which pEC50 did it give?
A: > 7.70

Q: `C[C@@]1(c2ccc(Cl)cc2F)Oc2cccc(-c3ccc(Cc4nc5ccc(C(=O)O)cc5n4C[C@@H]4CCO4)cc3)c2O1` (single isomer, unassigned) [Compound 3] was tested. Which pEC50 did it give?
A: < 7.00

Q: With `C[C@@]1(c2ccc(Cl)cc2F)Oc2cccc(-c3ccc(Cc4nc5ccc(C(=O)O)cc5n4C[C@@H]4CCO4)nc3)c2O1` (single isomer, unassigned) [Compound 4] as the compound, how does the pEC50 read?
A: < 7.00

Q: With `C[C@]1(c2ccc(Cl)cc2F)Oc2cccc(-c3ccc(Cc4nc5ccc(C(=O)O)cc5n4C[C@@H]4CCO4)nc3)c2O1` (single isomer, unassigned) [Compound 18] as the compound, how does the pEC50 read?
A: > 7.70

Q: How did the pEC50 turn out when `C[C@@]1(c2ccc(Cl)cc2F)Oc2cccc(C3CCN(Cc4nc5ccc(C(=O)NS(=O)(=O)C6CC6)cc5n4C[C@@H]4CCO4)CC3)c2O1` (single isomer, unassigned) [Compound 24] was run?
A: > 7.70

Q: With `O=C(O)c1ccc2nc(C[C@@H]3CC[C@@H](c4cccc(OCc5ccc(Cl)cc5F)n4)CO3)n(Cc3cncs3)c2c1` (single isomer, unassigned) [Compound 29] as the compound, how does the pEC50 read?
A: < 7.00

Q: `N#Cc1ccc(COc2cccc([C@H]3CC[C@H](Cc4nc5ccc(C(=O)O)cc5n4C[C@@H]4CCO4)OC3)n2)c(F)c1` (single isomer, unassigned) [Compound 30] was tested. Which pEC50 did it give?
A: > 7.70

Q: With `N#Cc1ccc(COc2cccc([C@@H]3CC[C@@H](Cc4nc5ccc(C(=O)O)cc5n4C[C@@H]4CCO4)OC3)n2)c(F)c1` (single isomer, unassigned) [Compound 31] as the compound, how does the pEC50 read?
A: > 7.70

Q: `N#Cc1ccc(COc2cccc([C@@H]3CC[C@H](Cc4nc5ccc(C(=O)O)cc5n4C[C@@H]4CCO4)OC3)n2)c(F)c1` (single isomer, unassigned) [Compound 32] was tested. Which pEC50 did it give?
A: > 7.70

Q: `N#Cc1ccc(COc2cccc([C@H]3CC[C@@H](Cc4nc5ccc(C(=O)O)cc5n4C[C@@H]4CCO4)OC3)n2)c(F)c1` (single isomer, unassigned) [Compound 33] was tested. Which pEC50 did it give?
A: > 7.70

Q: `C[C@@]1(c2ccc(Cl)cc2F)Oc2cccc(C3CCN(Cc4nc5ccc(-c6noc(=O)[nH]6)cc5n4C[C@@H]4CCO4)CC3)c2O1` (single isomer, unassigned) [Compound 37] was tested. Which pEC50 did it give?
A: > 7.70

Q: With `C[C@]1(c2ccc(Cl)cn2)Oc2cccc(-c3ccc(Cc4nc5ccc(C(=O)O)cc5n4C[C@@H]4CCO4)cc3)c2O1` (single isomer, unassigned) [Compound 40] as the compound, how does the pEC50 read?
A: > 7.70

Q: With `C[C@@]1(c2ccc(Cl)cn2)Oc2cccc(-c3ccc(Cc4nc5ccc(C(=O)O)cc5n4C[C@@H]4CCO4)cc3)c2O1` (single isomer, unassigned) [Compound 41] as the compound, how does the pEC50 read?
A: < 7.00

Q: How did the pEC50 turn out when `C[C@@]1(c2ccc(Cl)cn2)Oc2cccc(C34CCN(Cc5nc6ccc(C(=O)O)cc6n5C[C@@H]5CCO5)CC3C4)c2O1` (single isomer, unassigned) [Compound 72] was run?
A: > 7.70

Q: With `C[C@@]1(c2ccc(Cl)cn2)Oc2cccc(N3CC4C(Cc5nc6ccc(C(=O)O)cc6n5C[C@@H]5CCO5)C4C3)c2O1` (single isomer, unassigned) [Compound 73] as the compound, how does the pEC50 read?
A: < 7.00

Q: With `C[C@@]1(c2ccc(Cl)cn2)Oc2cccc(C3CC4CC3CN4Cc3nc4ccc(C(=O)O)cc4n3C[C@@H]3CCO3)c2O1` (single isomer, unassigned) [Compound 74] as the compound, how does the pEC50 read?
A: < 7.00

Q: How did the pEC50 turn out when `C[C@@]1(c2ccc(Cl)cn2)Oc2cccc(C34COC(Cc5nc6ccc(C(=O)O)cc6n5C[C@@H]5CCO5)CC3C4)c2O1` (single isomer, unassigned) [Compound 75] was run?
A: < 7.00

Q: `C[C@@]1(c2ccc(Cl)cn2)Oc2cccc(C3CCN(Cc4nc5ccc(C(=O)O)cc5n4C[C@@H]4CCO4)CC3(F)F)c2O1` (single isomer, unassigned) [Compound 76] was tested. Which pEC50 did it give?
A: > 7.70

Q: How did the pEC50 turn out when `C[C@@]1(c2ccc(Cl)cn2)Oc2cccc(N3CC=C(Cc4nc5ccc(C(=O)O)cc5n4C[C@@H]4CCO4)CC3)c2O1` (single isomer, unassigned) [Compound 77] was run?
A: > 7.70

Q: How did the pEC50 turn out when `C[C@@]1(c2ccc(Cl)cn2)Oc2cccc(C3=CC[C@@H](Cc4nc5ccc(C(=O)O)cc5n4C[C@@H]4CCO4)OC3)c2O1` (single isomer, unassigned) [Compound 79] was run?
A: < 7.00

Q: `C[C@@]1(c2ccc(Cl)cn2)Oc2cccc(C3(F)CCN(Cc4nc5ccc(C(=O)O)cc5n4C[C@@H]4CCO4)CC3)c2O1` (single isomer, unassigned) [Compound 83] was tested. Which pEC50 did it give?
A: 7.00 to 7.70

Q: With `C[C@@]1(c2ccc(Cl)cn2)Oc2cccc(C3C4CN(Cc5nc6ccc(C(=O)O)cc6n5C[C@@H]5CCO5)CC43)c2O1` (single isomer, unassigned) [Compound 85] as the compound, how does the pEC50 read?
A: 7.00 to 7.70

Q: `C[C@]1(c2ccc(Cl)cc2F)Oc2cccc(C3=CC[C@@H](Cc4nc5ccc(C(=O)O)cc5n4C[C@@H]4CCO4)OC3)c2O1` (single isomer, unassigned) [Compound 101] was tested. Which pEC50 did it give?
A: 7.00 to 7.70

Q: How did the pEC50 turn out when `C[C@@]1(c2ccc(Cl)cn2)Oc2cccc([C@H]3CC[C@@H](Cc4nc5ccc(C(=O)O)cc5n4C[C@@H]4CCO4)OC3)c2O1` (single isomer, unassigned) [Compound 102] was run?
A: < 7.00

Q: `C[C@@]1(c2ccc(Cl)cn2)Oc2cccc([C@@H]3CC[C@H](Cc4nc5ccc(C(=O)O)cc5n4C[C@@H]4CCO4)OC3)c2O1` (single isomer, unassigned) [Compound 103] was tested. Which pEC50 did it give?
A: 7.00 to 7.70

Q: `C[C@@]1(c2ccc(Cl)cc2F)Oc2cccc(C3=CC[C@H](Cc4nc5ccc(C(=O)O)cc5n4C[C@@H]4CCO4)OC3)c2O1` (single isomer, unassigned) [Compound 106] was tested. Which pEC50 did it give?
A: < 7.00

Q: How did the pEC50 turn out when `C[C@]1(c2ccc(Cl)cc2F)Oc2cccc(C3=CC[C@H](Cc4nc5ccc(C(=O)O)cc5n4C[C@@H]4CCO4)OC3)c2O1` (single isomer, unassigned) [Compound 107] was run?
A: < 7.00

Q: `C[C@@]1(c2ccc(C3CC3)cn2)Oc2cccc(C3=CCC(Cc4nc5ccc(C(=O)O)cc5n4C[C@@H]4CCO4)OC3)c2O1` (single isomer, unassigned) [Compound 111] was tested. Which pEC50 did it give?
A: > 7.70

Q: How did the pEC50 turn out when `C[C@]1(c2ccc(Cl)cn2)Oc2cccc(C3=CC[C@H](Cc4nc5ccc(C(=O)O)cc5n4Cc4cncs4)OC3)c2O1` (single isomer, unassigned) [Compound 112] was run?
A: > 7.70

Q: With `C[C@]1(c2ccc(Cl)cn2)Oc2cccc(C3=CC[C@@H](Cc4nc5ccc(C(=O)O)cc5n4Cc4cncs4)OC3)c2O1` (single isomer, unassigned) [Compound 113] as the compound, how does the pEC50 read?
A: 7.00 to 7.70

Q: With `C[C@]1(c2ccc(Cl)cn2)Oc2cccc(C3=CC[C@H](Cc4nc5ccc(C(=O)O)cc5n4Cc4cscn4)OC3)c2O1` (single isomer, unassigned) [Compound 114] as the compound, how does the pEC50 read?
A: 7.00 to 7.70

Q: How did the pEC50 turn out when `C[C@]1(c2ccc(Cl)cn2)Oc2cccc(C3=CC[C@@H](Cc4nc5ccc(C(=O)O)cc5n4Cc4cscn4)OC3)c2O1` (single isomer, unassigned) [Compound 115] was run?
A: < 7.00

Q: `C[C@]1(c2ccc(Cl)cn2)Oc2cccc(C3=CC[C@H](Cc4nc5c(F)cc(C(=O)O)cc5n4Cc4cscn4)OC3)c2O1` (single isomer, unassigned) [Compound 116] was tested. Which pEC50 did it give?
A: > 7.70

Q: With `C[C@]1(c2ccc(Cl)cn2)Oc2cccc(C3=CC[C@@H](Cc4nc5c(F)cc(C(=O)O)cc5n4Cc4cscn4)OC3)c2O1` (single isomer, unassigned) [Compound 117] as the compound, how does the pEC50 read?
A: < 7.00

Q: How did the pEC50 turn out when `C[C@]1(c2ccc(Cl)cn2)Oc2cccc(C3=CC[C@@H](Cc4nc5c(F)cc(C(=O)O)cc5n4C[C@@H]4CCO4)OC3)c2O1` (single isomer, unassigned) [Compound 119] was run?
A: 7.00 to 7.70

Q: With `C[C@@]1(c2ccc(C(F)(F)F)cn2)Oc2cccc(C3=CCC(Cc4nc5ccc(C(=O)O)cc5n4C[C@@H]4CCO4)OC3)c2O1` (single isomer, unassigned) [Compound 121] as the compound, how does the pEC50 read?
A: > 7.70

Q: `C[C@]1(c2ccc(C(F)(F)F)cn2)Oc2cccc(C3=CCC(Cc4nc5c(F)cc(C(=O)O)cc5n4C[C@@H]4CCO4)OC3)c2O1` (single isomer, unassigned) [Compound 122] was tested. Which pEC50 did it give?
A: < 7.00

Q: With `C[C@@]1(c2ccc(C3CC3)cn2)Oc2cccc(C3=CC[C@H](Cc4nc5c(F)cc(C(=O)O)cc5n4C[C@@H]4CCO4)OC3)c2O1` (single isomer, unassigned) [Compound 123] as the compound, how does the pEC50 read?
A: > 7.70

Q: With `N#Cc1ccc(COc2nccc(C34CCC(Cc5nc6ccc(C(=O)O)cc6n5C[C@@H]5CCO5)(CC3)CC4)n2)c(F)c1` [Compound 34, (S)-2-((4-(2-((4-cyano-2-fluorobenzyl)oxy)pyrimidin-4-yl)bicyclo[2.2.2]octan-1-yl)methyl)-1-(oxetan-2-ylmethyl)-1H-benzo[d]imidazole-6-carboxylic acid] as the compound, how does the pEC50 read?
A: < 7.00
